Data: patent publication US20250163006A1, “New Coolants, and Preparations Containing Same” (Symrise AG, priority 2022, published 2025)
Where two headings read alike, the source gives them in different places.

Molecular target: T1, human TRPM8 receptor (Homo sapiens, UniProt Q7Z2W7)
T1 construct: expressed in transfected cells; host or cells: HEK293, stably transfected, tetracycline-inducible expression
Experiment: Assay on TRPM8 modulators: Ca2+-sensitive dye (Fluo-4) fluorescence in HEK293-TRPM8 test cells
Assay type: cell-based
Set-up: relative TRPM8 activation: concentration or dose not given beside the values
Settings: for relative TRPM8 activation: HEK293 cells recombinantly expressing human TRPM8; for EC50: HEK293-TRPM8 cells
Text: The starting point for cloning the human TRPM8 receptor is an LnCaP cDNA bank. This is commercially available (e.g. BioChain, Hayward, USA) or can be produced from the andro gene-sensitive human prostate adenocarcinoma cell line LnCaP (e.g. ATCC, CRL1740 or ECACC, 891 1021 1) using standard kits.
The coding TRPM8 sequence (see e.g. http://www. ncbi.nlm.nih.gov/entrez/viewer.fcgi?db=nuccore&id=109689694) can be PCR-amplified and cloned using standard methods. The human TRPM8 gene isolated in this way was used to produce the plasmid plnd_M8. Alternatively, the TRPM8 gene can also be produced synthetically.
A stably transfected HEK293 cell line was produced as a test cell system using human TRPM8 DNA. Preference was given to HEK293, which offers the possibility of inducing TRPM8 expression using tetracycline via the plasmid introduced.
A test similar to the test already described in the literature by Behrendt H. J. et al, Br. J. Pharmacol. 141, 2004, 737-745, is performed. The agonization or antagonization of the receptor can be quantified using a Ca^2+-sensitive dye (e.g. FURA, Fluo-4 etc.). Agonists alone cause an increase in the Ca^2+ signal; antagonists cause a reduction in the Ca^2+ signal in the presence of e.g. menthol (detected in each case using the Fluo-4 dye, which has different fluorescence properties due to Ca^2+ ions).
First, a fresh culture of transformed HEK cells is prepared in cell culture flasks in the usual way. The HEK293-TRPM8 test cells are detached from the cell culture flasks using trypsin and 40,000 cells/well are seeded with 100 μl medium in 96-well plates (Greiner #655948 poly-D-lysine-coated). To induce the TRPM8 receptor, tetracycline is added to the growth medium (DMEM/HG, 10% FCS tetracycline-free, 4 mM L-glutamine, 15 μg/ml blasticidin, 100 μg/ml hygromycin B, 1 μg/ml tetracycline).
On the following day, the cells are loaded with Fluo-4AM dye and the test is performed. Proceed as follows: Addition of 100 μl/well staining solution Ca-4 kit (RB 141, Molecular Devices) to each 100 μl medium (DMEM/HG, 10% FCS tetracycline-free, 4 mM L-glutamine, 15 μg/ml blasticidin, 100 μg/ml hygromycin B, 1 μg/ml tetracycline).
Incubation in incubator, 30 minutes/37° C./5% CO2, 30 minutes/RT.
Preparation of the test substances (different concentrations in 200 μl HBSS buffer), as well as positive controls (different concentrations of menthol, icilin or lonomycin in 200 μl HBSS buffer) and negative controls (only 200 μl HBSS buffer) Addition of the test substances in quantities of 50 μl/well and measurement of the fluorescence change (e.g. in the assay device FLIPR, Molecular Devices or NovoStar, BMG) at 485 nm excitation, 520 nm emission, and evaluation of the potency of the different substances/concentrations and determination of the ECG. e.g. in the FLIPR assay device, Molecular Devices or NovoStar, BMG) at 485 nm excitation, 520 nm emission, and evaluation of the potency of the various substances/concentrations and determination of the EC50 values.
The test substances are used in triplicates in concentrations of 0.1-200 μM in the assay. Normally, the compounds are kept ready in DMSO solutions and diluted down to a maximum DMSO concentration of 2% for the assay.
The activity of the active substances in relation to activation of the TRPM8 channel is determined using the assay described. This is done in a concentration-dependent manner. For each active substance, 6 to 10 concentrations are measured as standard. A mathematical method (4-parameter or 5-parameter logistic curve fitting) can be used to determine the EC50 value as the inflection point of the sigmoidal curve from the activity values determined. These are standard biochemical methods that are familiar to experts.

[1] = TRPM8 activation, 6 to 10 concentrations, logistic curve fitting, read-out: EC50 value

T1 sequence (Q7Z2W7 whole entry): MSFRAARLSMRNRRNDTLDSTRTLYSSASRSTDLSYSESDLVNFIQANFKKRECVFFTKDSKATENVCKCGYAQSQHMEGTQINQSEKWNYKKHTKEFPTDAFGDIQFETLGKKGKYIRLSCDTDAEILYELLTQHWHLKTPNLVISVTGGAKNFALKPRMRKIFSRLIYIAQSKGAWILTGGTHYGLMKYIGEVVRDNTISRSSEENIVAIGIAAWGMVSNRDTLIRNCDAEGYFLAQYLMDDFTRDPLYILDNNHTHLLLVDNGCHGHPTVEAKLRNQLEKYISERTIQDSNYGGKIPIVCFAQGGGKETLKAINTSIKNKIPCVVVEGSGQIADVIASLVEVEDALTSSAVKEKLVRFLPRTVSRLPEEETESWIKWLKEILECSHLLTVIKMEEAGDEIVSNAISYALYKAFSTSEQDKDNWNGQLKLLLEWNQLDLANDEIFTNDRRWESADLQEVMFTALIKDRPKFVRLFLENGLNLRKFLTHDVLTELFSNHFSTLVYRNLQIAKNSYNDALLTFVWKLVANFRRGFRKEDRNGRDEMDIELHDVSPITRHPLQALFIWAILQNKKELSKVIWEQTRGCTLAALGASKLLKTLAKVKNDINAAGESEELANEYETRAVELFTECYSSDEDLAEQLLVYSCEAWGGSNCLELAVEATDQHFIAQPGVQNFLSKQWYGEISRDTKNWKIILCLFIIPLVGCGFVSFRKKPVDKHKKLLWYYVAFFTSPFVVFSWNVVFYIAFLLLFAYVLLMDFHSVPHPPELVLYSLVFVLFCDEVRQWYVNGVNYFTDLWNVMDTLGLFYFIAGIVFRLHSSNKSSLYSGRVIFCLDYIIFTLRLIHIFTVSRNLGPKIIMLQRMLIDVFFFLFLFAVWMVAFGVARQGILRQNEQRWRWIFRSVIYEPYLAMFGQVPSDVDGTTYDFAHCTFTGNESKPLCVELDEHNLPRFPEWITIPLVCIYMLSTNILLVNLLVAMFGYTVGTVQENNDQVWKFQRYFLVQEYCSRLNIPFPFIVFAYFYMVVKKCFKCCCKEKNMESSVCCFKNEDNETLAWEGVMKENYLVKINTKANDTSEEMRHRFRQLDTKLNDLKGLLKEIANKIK

Compound | relative TRPM8 activation [%] | also measured
CC1CCCCC1NC(=O)CSc1nc(-c2ccccc2)c(-c2ccccc2)o1 (centres unmarked) [Compound A-42, 2-(4,5-diphenyloxazol-2-yl)sulfanyl-N-(2-methylcyclohexyl) acetamide] | 4 | 
O=C(CSc1nc(-c2ccccc2)c(-c2ccccc2)o1)NC1CC1 [Compound A-06, N-cyclopropyl-2-(4,5-diphenyloxazol-2-yl)sulfanyl-acetamide] |  | EC50 [1]: ≤ 1 µM; EC50 (Table 6, read-out: TRPM8 EC50): 0.34 µM; EC50 (Table 8, read-out: TRPM8 EC50): 0.34 µM
CC(C)CNC(=O)C(C)Sc1nc(-c2ccccc2)c(-c2ccccc2)o1 (centres unmarked) [Compound A-37, 2-(4,5-diphenyloxazol-2-yl)sulfanyl-N-isobutyl-propanamide] | 7 | 
CC(Sc1nnc(-c2ccccc2)c(-c2ccccc2)n1)C(=O)N1CCCC1 (centres unmarked) [Compound B-18, 2-[(5,6-diphenyl-1,2,4-triazin-3-yl)sulfanyl]-1-pyrrolidin-1-yl-propan-1-one] |  | EC50 (Table 5, read-out: TRPM8 EC50): 5.36 µM; EC50 (Table 7, read-out: TRPM8 EC50): 5.36 µM
c1ccc(-c2nc(C3CCCCN3)oc2-c2ccccc2)cc1 (centres unmarked) [Compound A-44, 4,5-diphenyl-2-(2-piperidyl)oxazole] | 3 | 
COCCNC(=O)CSc1nc(-c2ccccc2)c(-c2ccccc2)o1 [Compound A-53, 2-(4,5-diphenyloxazol-2-yl)sulfanyl-N-(2-methoxyethyl) acetamide] | 1 | 
CNC(=O)CSc1nc(-c2ccccc2)c(-c2ccccc2)o1 [Compound A-15, 2-(4,5-diphenyloxazol-2-yl)sulfanyl-N-methyl-acetamide] |  | EC50 (Table 6, read-out: TRPM8 EC50): 7.14 µM; EC50 (Table 8, read-out: TRPM8 EC50): 7.14 µM
CNC(=O)CCc1nc(-c2ccc(C)cc2)c(-c2ccc(C)cc2)o1 [Compound A-32, 3-[4,5-bis (p-tolyl)oxazol-2-yl]-N-methyl-propanamide] | 23 | 
CNC(=O)C(C)Sc1nc(-c2ccccc2)c(-c2ccccc2)[nH]1 (centres unmarked) [Compound A-47, 2-[(4,5-diphenyl-1H-imidazol-2-yl)sulfanyl]-N-methyl-propanamide] | 2 | 
CSCC(=O)N1CCCCC1c1nc(-c2ccccc2)c(-c2ccccc2)o1 (centres unmarked) [Compound A-21, 1-[2-(4,5-diphenyloxazol-2-yl)-1-piperidyl]-2-methylsulfanyl-ethanone] | 70 | 
CCCC(C)NC(=O)CSc1nc(-c2ccccc2)c(-c2ccccc2)o1 (centres unmarked) [Compound A-52, 2-(4,5-diphenyloxazol-2-yl)sulfanyl-N-(1-methylbutyl) acetamide] | 1 | 
CNC(=O)C(C)Sc1nc(-c2ccccc2)c(-c2ccccc2)o1 (centres unmarked) [Compound A-01, 3-carboxy-3,5-dihydroxy-5-OXO-pentanoate;2-(4,5-diphenyloxazol-2-yl)sulfanylpropa noyl-methyl-ammonium] |  | EC50 (Table 6, read-out: TRPM8 EC50): 0.01 µM; EC50 (Table 8, read-out: TRPM8 EC50): 0.01 µM
CCC(Sc1nnc(-c2ccccc2)c(-c2ccccc2)n1)C(=O)N(C)C (centres unmarked) [Compound B-05, 2-[(5,6-diphenyl-1,2,4-triazin-3-yl)sulfanyl]-N,N-dimethyl-butanamide] |  | EC50 [1]: ≤ 1 µM; EC50 (Table 5, read-out: TRPM8 EC50): 0.1 µM; EC50 (Table 7, read-out: TRPM8 EC50): 0.1 µM
COc1ccc(-c2nc(SCC(=O)NC3CC3)oc2-c2ccc(OC)cc2)cc1 [Compound A-58, 2-[4,5-bis(4-methoxyphenyl)oxazol-2-yl]sulfanyl-N-cyclopropyl-acetamide] | 1 | 
CC(=O)OCCSc1nc(-c2ccccc2)c(-c2ccccc2)o1 [Compound A-57, 2-(4,5-diphenyloxazol-2-yl)sulfanylethyl acetate] | 1 | 
CC(C)CNC(=O)CSc1nc(-c2ccccc2)c(-c2ccccc2)o1 [Compound A-65, 2-(4,5-diphenyloxazol-2-yl)sulfanyl-N-isobutyl-acetamide] | −1 | 
CNCCc1nc(-c2ccccc2)c(-c2ccccc2)o1.Cl [Compound A-62, 2-(4,5-diphenyloxazol-2-yl)ethyl-methyl-ammonium; chloride] | 0 | 
CNC(=O)CSc1nc(-c2ccc(OC)cc2)c(-c2ccc(OC)cc2)o1 [Compound A-72, 2-[4,5-bis(4-methoxyphenyl)oxazol-2-yl]sulfanyl-N-methyl-acetamide] | −5 | 
CCC(=O)C(C)Sc1nc(-c2ccccc2)c(-c2ccccc2)o1 (centres unmarked) [Compound A-48, 2-(4,5-diphenyloxazol-2-yl) sulfanylpentan-3-one] | 2 | 
CCNC(=O)C1CC(C)CCC1C(C)C [WS-3, L-menthanecarboxylic acid N-ethylamide, reference compound] |  | EC50 [1]: 1.72 µM

The next lines start with results.

relative TRPM8 activation [%] | Compound | also measured
1 | CNC(=O)C(C)Sc1nnc(C)c(C)n1 (centres unmarked) [Compound B-60, 2-[(5,6-dimethyl-1,2,4-triazin-3-yl)sulfanyl]-N-methyl-propanamide] | 
5 | CC(Sc1nnc(-c2ccccc2)c(-c2ccccc2)n1)C(=O)O (centres unmarked) [Compound B-44, 2-[(5,6-diphenyl-1,2,4-triazin-3-yl)sulfanyl]propanoic acid] | 
40 | CCCCSc1nnc(-c2ccccc2)c(-c2ccccc2)n1 [Compound B-31, 3-butylsulfanyl-5,6-diphenyl-1,2,4-triazine] | 
2 | OCC(O)CNc1nnc(-c2ccccc2)c(-c2ccccc2)n1 (centres unmarked) [Compound B-54, 3-[(5,6-diphenyl-1,2,4-triazin-3-yl)amino]propane-1,2-diol] | 
2 | CNC(=O)C(C)Oc1nnc(-c2ccccc2)c(-c2ccccc2)n1 (centres unmarked) [Compound B-57, 2-[(5,6-diphenyl-1,2,4-triazin-3-yl)oxy]-N-methyl-propanamide] | 
41 | COCCSc1nnc(-c2ccccc2)c(-c2ccccc2)n1 [Compound B-30, 3-(2-methoxyethyl-sulfanyl)-5,6-diphenyl-1,2,4-triazine] | 
6 | CNC(=O)CNc1nnc(-c2ccccc2)c(-c2ccccc2)n1 [Compound B-43, 2-[(5,6-diphenyl-1,2,4-triazin-3-yl)amino]-N-methyl-acetamide] | 
25 | CCC(=O)CSc1nnc(-c2ccccc2)c(-c2ccccc2)n1 [Compound B-33, 1-[(5,6-diphenyl-1,2,4-triazin-3-yl)sulfanyl]butan-2-one] | 
2 | NC(=O)Nc1nnc(-c2ccccc2)c(-c2ccccc2)n1 [Compound B-56, (5,6-diphenyl-1,2,4-triazin-3-yl)urea] | 
3 | c1ccc(-c2nnc(NC3COC3)nc2-c2ccccc2)cc1 [Compound B-51, N-(oxetan-3-yl)-5,6-diphenyl-1,2,4-triazin-3-amine] | 
25 | CNC(=O)C(C)Sc1nncc(-c2ccccc2)n1 (centres unmarked) [Compound B-34, N-methyl-2-[(5-phenyl-1,2,4-triazin-3-yl)sulfanyl]propanamide] | 
